Like-named read-outs stand apart in the source and are kept apart here.
How the values were obtained:
THR-β = molecular target: T1, THR-β (Homo sapiens, UniProt P10828); experiment: Agonistic activity on THR-β (TRβ-LBD/RXRα, biotin-SRC2-2 recruitment, fluorescence ratio 665 nm/615 nm); format: biochemical; conditions: for Selectivity THR-β/THR-α: THR-α EC50 ÷ THR-β EC50; for Agonistic activity for THR-β compared to control compound MGL-3196: in words, versus MGL-3196
T1 construct: A mixed solution of 4× TRα-LBD or TRβ-LBD and 4× RXRα was prepared
Protocol: (§1) 100× solutions of reference compounds or compounds were prepared with DMSO and then diluted in a 1:3 equal ratio. The gradient dilution of 100× reference compound or compound was further diluted to 4× with 1× reaction buffer and then added to the test plate. A mixed solution of 4× TRα-LBD or TRβ-LBD and 4× RXRα was prepared with 1× reaction buffer and added to the test plate. […] The plate was centrifuged at 1000 rpm for 1 min and then incubated at room temperature and in the dark for 4 h.

THR-α = molecular target: T2, THR-α (Homo sapiens, UniProt P10827); experiment: Agonistic activity on THR-α (TRα-LBD/RXRα, biotin-SRC2-2 recruitment, fluorescence ratio 665 nm/615 nm); format: biochemical; conditions: for Agonistic activity for THR-α compared to control compound MGL-3196: in words, versus MGL-3196
T2 construct: A mixed solution of 4× TRα-LBD or TRβ-LBD and 4× RXRα was prepared
Protocol: as §1

[1] = Pharmacokinetic test in ICR mice, plasma concentration by LC/MS/MS; format: in vivo; conditions: for AUC(0-inf): read-out: Exposure AUCinf
Protocol: • Polyethylene glycol 400 (PEG400), manufacturer: Chengdu Kelong Chemical Reagent Factory; • Hydroxypropyl 3-cyclodextrin (HP-β-CD), manufacturer: Shanghai Dibai Chemical Technology Co., Ltd.; • HPC LF, manufacturer: Chengdu Yuannuo Tiancheng Technology Co., Ltd.; • Heparin sodium, manufacturer: Chengdu Kelong Chemical Reagent Factory. • Experimental animals: ICR mice (Chengdu Dossy Experimental Animals CO., LTD.) 2) Experimental Method
Preparation of Test Compound Solution
IV group: 1.15 mg of test compound was accurately weighed, and then DMA (0.228 ml) was added to dissolve the compound, to which were successively added PEG400 (1.139 ml) and 0.1 M of phosphate buffer (5.012 ml). Finally, 40% HP-B-CD was added to the final volume of 11.39 ml. The solution was thoroughly mixed by ultrasonic vortex. A clear solution at the concentration of 0.1 mg/ml was prepared.
PO group: 5.06 mg of test compound was precisely weighed, and then 2% HPC LF (containing 0.1% Tween-80) was added to the final volume of 20.04 ml. The solution was mixed by ultrasound, to prepare a uniform suspension at the concentration of 0.25 mg/ml.
After fasting overnight (free drinking water), nine adult ICR mice (3 mice for each time point) were administered by injection via tail vein and by gavage, respectively. For IV group, 5 min, 15 min, 0.5 h, 1 h, 2 h, 4 h, 8 h, 12 h and 24 h after administration, 0.1 ml of blood was collected from the submandibular vein, centrifuged at 4° C. for 5 min to separate the plasma, and stored at −20° C. for detection. For PO group, before administration and 0.5 h, 1 h, 2 h, 4 h, 6 h, 8 h, 12 h and 24 h after administration, 0.1 ml of blood was collected from the submandibular vein, and the processing was the same as that of IV group.
Then, the concentration of original drug in plasma was determined by LC/MS/MS. The plasma concentration-time curve was plotted, and the main pharmacokinetic parameters were calculated with WinNonlin 6.3 software (see Table 2).

T1 sequence (P10828 217-461 limits assumed, other chains not shown): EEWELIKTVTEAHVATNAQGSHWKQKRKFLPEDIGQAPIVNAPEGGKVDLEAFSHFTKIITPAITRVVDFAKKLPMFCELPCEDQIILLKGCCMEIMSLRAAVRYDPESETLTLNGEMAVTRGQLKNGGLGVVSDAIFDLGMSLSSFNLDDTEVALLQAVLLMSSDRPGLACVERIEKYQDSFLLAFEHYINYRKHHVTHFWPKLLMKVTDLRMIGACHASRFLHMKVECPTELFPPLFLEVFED
T1 sequence (P19793 whole entry partner, other chains not shown, the tested form may be a part): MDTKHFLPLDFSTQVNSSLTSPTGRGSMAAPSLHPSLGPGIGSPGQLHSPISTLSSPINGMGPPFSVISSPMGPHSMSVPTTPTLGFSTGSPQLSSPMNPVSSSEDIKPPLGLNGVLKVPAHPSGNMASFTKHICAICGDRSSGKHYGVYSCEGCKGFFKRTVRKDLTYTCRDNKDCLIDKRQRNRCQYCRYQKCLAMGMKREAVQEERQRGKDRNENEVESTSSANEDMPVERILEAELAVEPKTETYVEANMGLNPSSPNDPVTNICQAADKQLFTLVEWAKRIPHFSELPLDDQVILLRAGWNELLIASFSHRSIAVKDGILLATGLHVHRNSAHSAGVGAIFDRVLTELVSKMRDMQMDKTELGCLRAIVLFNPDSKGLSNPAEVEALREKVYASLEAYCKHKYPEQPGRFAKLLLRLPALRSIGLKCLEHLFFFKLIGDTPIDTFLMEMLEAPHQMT
T2 sequence (P10827 163-410 isoform P10827-2 limits assumed, other chains not shown): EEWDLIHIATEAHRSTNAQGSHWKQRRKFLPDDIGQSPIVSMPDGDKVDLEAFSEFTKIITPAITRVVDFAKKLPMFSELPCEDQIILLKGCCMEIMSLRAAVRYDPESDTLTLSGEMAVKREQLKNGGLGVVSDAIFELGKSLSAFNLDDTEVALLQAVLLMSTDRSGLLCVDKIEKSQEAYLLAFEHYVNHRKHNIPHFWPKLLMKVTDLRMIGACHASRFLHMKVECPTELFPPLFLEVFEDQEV
T2 sequence (P19793 whole entry partner, other chains not shown, the tested form may be a part): as the sequence (P19793 whole entry partner, other chains not shown, the tested form may be a part) above

SMILES | EC50 (THR-β) [nM] | Selectivity THR-β/THR-α (THR-β) | EC50 (THR-α) [nM] | AUC(0-inf) ([1]; ICR, mouse, plasma, dosage 2 mg/kg, route not given) [ng·h/mL] | half-life ([1]; ICR, mouse, plasma, dosage 2 mg/kg, route not given, read-out: Half-life T1/2 (converted)) [h] | Cmax ([1]; ICR, mouse, plasma, dosage 2 mg/kg, route not given, read-out: Peak concentration Cmax) [ng/mL] | Tmax ([1]; ICR, mouse, plasma, dosage 2 mg/kg, route not given, read-out: Peak time Tmax) [h] | Half-life compared to MGL-3196 ([1]; compound at a lower dose, in words) | AUC(0-inf) ([1]; ICR, mouse, plasma, dosage 5 mg/kg, route not given) [ng·h/mL] | Peak time Tmax ([1]; dosage 5 mg/kg, route not given) [h] | Agonistic activity for THR-β compared to control compound MGL-3196 (THR-β) | Agonistic activity for THR-α compared to control compound MGL-3196 (THR-α)
CC(C)c1cc(Oc2c(Br)cc(-n3nc(C#N)c(=O)[nH]c3=O)cc2Br)n[nH]c1=O [Compound 13, 2-(3,5-Dibromo-4-((5-isopropyl-6-oxo-1,6-dihydropyridazin-3-yl)oxy)phenyl)-3,5-dioxy-2,3,4,5-tetrahydro-1,2,4-triazine-6-nitrile] | 30 | 27 | 800 |  |  |  |  |  |  |  | significantly higher agonistic activities | significantly higher agonistic activities
[2H]c1c(Oc2c(Cl)cc(-n3nc(C#N)c(=O)[nH]c3=O)cc2Br)n[nH]c(=O)c1C(C([2H])([2H])[2H])C([2H])([2H])[2H] [Compound 3, 2-(3-bromo-5-chloro-4-((4-deutero-5-(1,1,1,3,3,3-hexadeuteropropyl-2-yl)-6-oxo-1,6-dihydropyrazin-3-yl)oxy)phenyl)-3,5-dioxy-2,3,4,5-tetrahydro-1,2,4-triazine-6-nitrile] | 60 |  | 1330 |  |  |  |  |  |  |  | significantly higher agonistic activities | 
CC(C)c1cc(Oc2c(Cl)cc(-n3nc(C#N)c(=O)[nH]c3=O)cc2Br)n[nH]c1=O [Compound 1, 2-(3-bronco-5-chloro-4-((5-isopropyl-6-oxo-1,6-dihydropyridazin-3-yl)oxy)phenyl)-3,5-dioxo-2,3,4,5-tetrahydro-1,2,4-triazine-6-nitrile] | 57 |  | 1020 |  |  |  |  |  |  |  | significantly higher agonistic activities | significantly higher agonistic activities
[2H]C([2H])([2H])C(c1cc(Oc2c(Br)cc(-n3nc(C#N)c(=O)[nH]c3=O)cc2Br)n[nH]c1=O)C([2H])([2H])[2H] [Compound 14] | 27 | 12 | 326 |  |  |  |  |  |  |  | significantly higher agonistic activities | significantly higher agonistic activities

Continued, in another order:

EC50 (THR-β) [nM] | Selectivity THR-β/THR-α (THR-β) | EC50 (THR-α) [nM] | AUC(0-inf) ([1]; ICR, mouse, plasma, dosage 2 mg/kg, route not given) [ng·h/mL] | half-life ([1]; ICR, mouse, plasma, dosage 2 mg/kg, route not given, read-out: Half-life T1/2 (converted)) [h] | Cmax ([1]; ICR, mouse, plasma, dosage 2 mg/kg, route not given, read-out: Peak concentration Cmax) [ng/mL] | Tmax ([1]; ICR, mouse, plasma, dosage 2 mg/kg, route not given, read-out: Peak time Tmax) [h] | Half-life compared to MGL-3196 ([1]; compound at a lower dose, in words) | AUC(0-inf) ([1]; ICR, mouse, plasma, dosage 5 mg/kg, route not given) [ng·h/mL] | Peak time Tmax ([1]; dosage 5 mg/kg, route not given) [h] | SMILES | Agonistic activity for THR-β compared to control compound MGL-3196 (THR-β) | Agonistic activity for THR-α compared to control compound MGL-3196 (THR-α)
52 |  | 1060 | 9260 | 5.25 | 960 | 4 | longer |  |  | [2H]C([2H])([2H])C(c1cc(Oc2c(Cl)cc(-n3nc(C#N)c(=O)[nH]c3=O)cc2Br)n[nH]c1=O)C([2H])([2H])[2H] [Compound 2, 2-(3-bromo-5-chloro-4-((5-di(trideuteromethyl)methyl-6-oxo-1,6-dihydropyridazine-3-yl)oxy)phenyl)-3,5-dioxo-2,3,4,5-tetrahydro-1,2,4-triazine-6-nitrile] |  | 
19 | 18 | 349 |  |  |  |  |  |  |  | [2H]c1c(Oc2c(Br)cc(-n3nc(C#N)c(=O)[nH]c3=O)cc2Br)n[nH]c(=O)c1C(C([2H])([2H])[2H])C([2H])([2H])[2H] [Compound 15, 2-(3,5-dibromo-4-((6-oxo-5-(propan-2-yl-1,1,1,3,3,3-d6)-1,6-dihydropyridazin-3-yl-4-d)oxy)phenyl)-3,5-dioxy-2,3,4,5-tetrahydro-1,2,4-triazine-6-nitrile] | significantly higher agonistic activities | significantly higher agonistic activities
 |  |  |  |  |  |  |  | 9360 | 2 | CC(C)c1cc(Oc2c(Cl)cc(-n3nc(C#N)c(=O)[nH]c3=O)cc2Cl)n[nH]c1=O [MGL-3196, reference compound] |  | 

Reference: patent US11926618B2, “Halogen-substituted phenylate compound and applications thereof” (HINOVA PHARMACEUTICALS INC., priority 2019, dated 2024)
